Reference: patent US9399626B2, “2-thiopyrimidinones” (Pfizer Inc., priority 2011, dated 2016)

What follows are compounds tested against T1, MPO (purified from human polynuclear leukocytes) (Homo sapiens, UniProt P05164) (assay: MPO Amplex Red Activity Assay). Details: Table 1A, 2 μM H2O2, pH 7.4.
T1 construct: purified from human polynuclear leukocytes; purchased Calbiochem/EMD Biosciences; host or cells: human polynuclear leukocytes (natural source)
Format: biochemical
Summary of the method: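 Potency is given as kinact/KI: kobs values from 600 s progress curves, minus the uninhibited rate, are fit against inhibitor concentration. Reactions use 2 μM H2O2, 30 μM Amplex Red, pH 7.4 phosphate buffer with NaCl, DTPA and 2% DMSO, started with […] human MPO. Readout is resorufin fluorescence, catalase background subtracted.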

T1 sequence (P05164 279-745 limits assumed): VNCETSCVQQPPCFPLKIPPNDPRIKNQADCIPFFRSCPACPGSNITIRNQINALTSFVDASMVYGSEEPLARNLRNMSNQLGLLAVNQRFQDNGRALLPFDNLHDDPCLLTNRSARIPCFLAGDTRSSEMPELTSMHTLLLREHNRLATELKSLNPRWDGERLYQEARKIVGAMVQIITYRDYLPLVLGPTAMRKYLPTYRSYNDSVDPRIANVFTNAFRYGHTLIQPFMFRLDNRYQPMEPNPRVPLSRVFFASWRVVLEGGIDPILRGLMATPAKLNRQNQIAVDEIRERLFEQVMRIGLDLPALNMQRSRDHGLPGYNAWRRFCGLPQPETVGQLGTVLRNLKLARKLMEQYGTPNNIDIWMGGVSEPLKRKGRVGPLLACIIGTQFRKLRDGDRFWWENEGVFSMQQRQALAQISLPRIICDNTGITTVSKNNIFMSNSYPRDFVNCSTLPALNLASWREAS
T1 sequence (P05164 165-273 limits assumed): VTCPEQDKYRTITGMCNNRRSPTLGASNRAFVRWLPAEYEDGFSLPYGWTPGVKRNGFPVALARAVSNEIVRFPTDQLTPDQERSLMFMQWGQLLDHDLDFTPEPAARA

Structure (SMILES) | MPO kinact/Ki
CC(=O)OCCOc1ccc(F)cc1-c1cc(=O)[nH]c(=S)n1CC(N)=O [Example 421, 2-{2-[3-(2-amino-2-oxoethyl)-6-oxo-2-thioxo-1,2,3,6-tetrahydropyrimidin-4-yl]-4-fluorophenoxy}ethyl acetate] | 4950 1/s per M
COc1cc(OCC(N)=O)ccc1-c1cc(=O)[nH]c(=S)n1CCN [Example 423, 2-{4-[3-(2-aminoethyl)-6-oxo-2-thioxo-1,2,3,6-tetrahydropyrimidin-4-yl]-3-methoxyphenoxy}acetamide] | 3290 1/s per M
O=c1cc(-c2cc(Cl)ccc2OCCO)n(CCO)c(=S)[nH]1 [Example 425, 6-[5-chloro-2-(2-hydroxyethoxy)phenyl]-1-(2-hydroxyethyl)-2-thioxo-2,3-dihydropyrimidin-4(1H)-one] | 13400 1/s per M
NCCn1c(-c2cc(Cl)ccc2OCCO)cc(=O)[nH]c1=S [Example 427, 1-(2-aminoethyl)-6-[5-chloro-2-(2-hydroxyethoxy)phenyl]-2-thioxo-2,3-dihydropyrimidin-4(1H)-one] | 5360 1/s per M
NCCNC(=O)Cn1c(-c2ccccc2OCCO)cc(=O)[nH]c1=S [Example 428, N-(2-aminoethyl)-2-{6-[2-(2-hydroxyethoxy)phenyl]-4-oxo-2-thioxo-3,4-dihydropyrimidin-1(2H)-yl}acetamide] | 5890 1/s per M
COc1ccc(-c2cc(=O)[nH]c(=S)n2CC(=O)NCC(C)(C)N)c(OC)c1 [Example 429, N-(2-amino-2-methylpropyl)-2-[6-(2,4-dimethoxyphenyl)-4-oxo-2-thioxo-3,4-dihydropyrimidin-1(2H)-yl]acetamide] | 6620 1/s per M
COc1ccc(-c2cc(=O)[nH]c(=S)n2CC(=O)N[C@H]2C[C@@H](N)C2)c(OC)c1 [Example 430, N-(cis-3-aminocyclobutyl)-2-[6-(2,4-dimethoxyphenyl)-4-oxo-2-thioxo-3,4-dihydropyrimidin-1(2H)-yl]acetamide] | 9440 1/s per M
COc1ccc(-c2cc(=O)[nH]c(=S)n2CC(=O)N2CC(N)C2)c(OC)c1 [Example 431, 1-[2-(3-aminoazetidin-1-yl)-2-oxoethyl]-6-(2,4-dimethoxyphenyl)-2-thioxo-2,3-dihydropyrimidin-4(1H)-one] | 3440 1/s per M
COc1ccc(-c2cc(=O)[nH]c(=S)n2CC(=O)N[C@H](C)[C@@H](C)N)c(OC)c1 [Example 433, N-[(2R,3R)-3-aminobutan-2-yl]-2-[6-(2,4-dimethoxyphenyl)-4-oxo-2-thioxo-3,4-dihydropyrimidin-1(2H)-yl]acetamide] | 3490 1/s per M
CCCNC(=O)Cn1c(-c2ccc(OC)cc2OC)cc(=O)[nH]c1=S [Example 435, 2-[6-(2,4-dimethoxyphenyl)-4-oxo-2-thioxo-3,4-dihydropyrimidin-1(2H)-yl]-N-propylacetamide] | 2420 1/s per M
COc1ccc(-c2cc(=O)[nH]c(=S)n2CC(=O)N[C@H]2C[C@H](N)C2)c(OC)c1 [Example 437, N-(trans-3-aminocyclobutyl)-2-[6-(2,4-dimethoxyphenyl)-4-oxo-2-thioxo-3,4-dihydropyrimidin-1(2H)-yl]acetamide] | 3400 1/s per M
COc1ccc(-c2cc(=O)[nH]c(=S)n2CC(=O)NC2CNC2)c(OC)c1 [Example 438, N-(azetidin-3-yl)-2-[6-(2,4-dimethoxyphenyl)-4-oxo-2-thioxo-3,4-dihydropyrimidin-1(2H)-yl]acetamide] | 7550 1/s per M
COc1ccc(-c2cc(=O)[nH]c(=S)n2CC(=O)NCCCN)c(OC)c1 [Example 442, N-(3-aminopropyl)-2-[6-(2,4-dimethoxyphenyl)-4-oxo-2-thioxo-3,4-dihydropyrimidin-1(2H)-yl]acetamide] | 12300 1/s per M
COc1ccc(-c2cc(=O)[nH]c(=S)n2CC(=O)NCCNCC2CC2)c(OC)c1 [Example 445, N-{2-[(cyclopropylmethyl)amino]ethyl}-2-[6-(2,4-dimethoxyphenyl)-4-oxo-2-thioxo-3,4-dihydropyrimidin-1(2H)-yl]acetamide] | 7350 1/s per M
COc1ccc(-c2cc(=O)[nH]c(=S)n2CCC(=O)NC(=N)N)c(OC)c1 [Example 446, N-carbamimidoyl-3-{6-(2,4-dimethoxyphenyl)-4-oxo-2-thioxo-3,4-dihydropyrimidin-1(2H)-yl]propanamide] | 14200 1/s per M
CCNC(=N)NCCCn1c(-c2cc(Cl)ccc2OC)cc(=O)[nH]c1=S [Example 449, 1-{3-[6-(5-chloro-2-methoxyphenyl)-4-oxo-2-thioxo-3,4-dihydropyrimidin-1(2H)-yl]propyl}-2-ethylguanidine] | 12000 1/s per M
COc1ccc(Cl)cc1-c1cc(=O)[nH]c(=S)n1CCCNC(=N)N1CCCC1 [Example 450, N-{3-[6-(5-chloro-2-methoxyphenyl)-4-oxo-2-thioxo-3,4-dihydropyrimidin-1(2H)-yl]propyl}pyrrolidine-1-carboximidamide] | 7730 1/s per M

The next lines start with the values.

MPO kinact/Ki | Structure (SMILES)
11500 1/s per M | COc1cc(C)ccc1-c1cc(=O)[nH]c(=S)n1CC(N)=O [Example 418, 2-[6-(2-methoxy-4-methylphenyl)-4-oxo-2-thioxo-3,4-dihydropyrimidin-1(2H)-yl]acetamide]
1200 1/s per M | COc1ccc(F)cc1-c1cc(=O)[nH]c(=S)n1CCONC(=N)N [Example 419, 1-{2-[6-(5-fluoro-2-methoxyphenyl)-4-oxo-2-thioxo-3,4-dihydropyrimidin-1(2H)-yl]ethoxy}guanidine]
5210 1/s per M | COc1ccc(-c2cc(=O)[nH]c(=S)n2CC(N)=O)c(OCCO)c1 [Example 420, 2-{6-[2-(2-hydroxyethoxy)-4-methoxyphenyl]-4-oxo-2-thioxo-3,4-dihydropyrimidin-1(2H)-yl}acetamide]
4460 1/s per M | COc1ccc(OCCO)cc1-c1cc(=O)[nH]c(=S)n1CC(N)=O [Example 422, 2-{6-[5-(2-hydroxyethoxy)-2-methoxyphenyl]-4-oxo-2-thioxo-3,4-dihydropyrimidin-1(2H)-yl}acetamide]
6870 1/s per M | NCCNC(=O)Cn1c(-c2cc(Cl)ccc2OCCO)cc(=O)[nH]c1=S [Example 424, N-(2-aminoethyl)-2-{6-[5-chloro-2-(2-hydroxyethoxy)phenyl]-4-oxo-2-thioxo-3,4-dihydropyrimidin-1(2H)-yl}acetamide]
4410 1/s per M | NC(=O)Cn1c(-c2cc(Cl)ccc2OCCO)cc(=O)[nH]c1=S [Example 426, 2-{6-[5-chloro-2-(2-hydroxyethoxy)phenyl]-4-oxo-2-thioxo-3,4-dihydropyrimidin-1(2H)-yl}acetamide]
1410 1/s per M | COc1ccc(-c2cc(=O)[nH]c(=S)n2CC(=O)NC(C)(C)CN)c(OC)c1 [Example 432, N-(1-amino-2-methylpropan-2-yl)-2-[6-(2,4-dimethoxyphenyl)-4-oxo-2-thioxo-3,4-dihydropyrimidin-1(2H)-yl]acetamide]
4070 1/s per M | CCNC(=O)Cn1c(-c2ccc(OC)cc2OC)cc(=O)[nH]c1=S [Example 434, 2-[6-(2,4-dimethoxyphenyl)-4-oxo-2-thioxo-3,4-dihydropyrimidin-1(2H)-yl]-N-ethylacetamide]
3710 1/s per M | COCCNC(=O)Cn1c(-c2ccc(OC)cc2OC)cc(=O)[nH]c1=S [Example 436, 2-[6-(2,4-dimethoxyphenyl)-4-oxo-2-thioxo-3,4-dihydropyrimidin-1(2H)-yl]-N-(2-methoxyethyl)acetamide]
9200 1/s per M | COc1ccc(-c2cc(=O)[nH]c(=S)n2CC(=O)N[C@H]2CC[C@@H]2N)c(OC)c1 [Example 439, N-[(1S,2S)-2-aminocyclobutyl]-2-[6-(2,4-dimethoxyphenyl)-4-oxo-2-thioxo-3,4-dihydropyrimidin-1(2H)-yl]acetamide]
3310 1/s per M | COc1ccc(-c2cc(=O)[nH]c(=S)n2CCN(C)C(=O)CN)c(OC)c1 [Example 440, N-{2-[6-(2,4-dimethoxyphenyl)-4-oxo-2-thioxo-3,4-dihydropyrimidin-1(2H)-yl]ethyl}-N-methylglycinamide]
3260 1/s per M | COc1ccc(-c2cc(=O)[nH]c(=S)n2CC(=O)N[C@@H]2CC[C@H]2N)c(OC)c1 [Example 441, N-[(1R,2R)-2-aminocyclobutyl]-2-[6-(2,4-dimethoxyphenyl)-4-oxo-2-thioxo-3,4-dihydropyrimidin-1(2H)-yl]acetamide]
7330 1/s per M | COc1ccc(-c2cc(=O)[nH]c(=S)n2CC(=O)NCC(F)(F)CN)c(OC)c1 [Example 443, N-(3-amino-2,2-difluoropropyl)-2-[6-(2,4-dimethoxyphenyl)-4-oxo-2-thioxo-3,4-dihydropyrimidin-1(2H)-yl]acetamide]
17400 1/s per M | COc1ccc(-c2cc(=O)[nH]c(=S)n2CCC(=O)NCCN)c(OC)c1 [Example 444, N-(2-aminoethyl)-3-[6-(2,4-dimethoxyphenyl)-4-oxo-2-thioxo-3,4-dihydropyrimidin-1(2H)-yl]propanamide]
17200 1/s per M | COc1ccc(F)cc1-c1cc(=O)[nH]c(=S)n1CCCNC(=N)NC#N [Example 447, 1-cyano-3-{3-[6-(5-fluoro-2-methoxyphenyl)-4-oxo-2-thioxo-3,4-dihydropyrimidin-1(2H)-yl]propyl}guanidine]
6490 1/s per M | N=C(N)NCCn1c(-c2cc(Cl)ccc2OCCO)cc(=O)[nH]c1=S [Example 448, 1-(2-{6-[5-chloro-2-(2-hydroxyethoxy)phenyl]-4-oxo-2-thioxo-3,4-dihydropyrimidin-1(2H)-yl}ethyl)guanidine]
